Experimental data taken from patent publication US20150274657A1, “PYRROLIDINES” (MERCK PATENT GMBH, priority 2012, published 2015).
Where two headings read alike, the source gives them in different places.

Experiments:
[1] = target: T1, human Nav1.6 ion channels (Homo sapiens, UniProt Q9UQD0); assay: IonWorks electrophysiological assay on CHO cells expressing human Nav1.6; type: cell-based; conditions: CHO human Nav1.6 expressing cells
T1 construct: host or cells: CHO
Method: IonWorks electrophysiological assays were conducted to profile compounds for activity on CHO human Nav1.6 ion channels expressing cells (Milipore) using a unique protocol to assess the close (tonic, Pulse 1) and inactivated state inhibition (Pulse 2). The membrane potential is initially held at a hyperpolarized potential (−120 mV) to drive sodium channels into the resting closed state. The membrane is then reset to 0 mV voltage (for 2.5 seconds) following a brief 5 ms hyperpolarization to partially remove inactivation of non-blocked sodium channels; a short 20 ms test voltage step is applied to assess the magnitude of inhibition.

[2] = secondary progressive MS patients; over 2 years; p=0.02; cited from earlier work
[3] = closed (tonic) state inhibition (Pulse 1), read-out: Nav1.6 Tonic
[4] = inactivated state inhibition (Pulse 2), read-out: Nav1.6 Inactivated

T1 sequence (Q9UQD0 whole entry): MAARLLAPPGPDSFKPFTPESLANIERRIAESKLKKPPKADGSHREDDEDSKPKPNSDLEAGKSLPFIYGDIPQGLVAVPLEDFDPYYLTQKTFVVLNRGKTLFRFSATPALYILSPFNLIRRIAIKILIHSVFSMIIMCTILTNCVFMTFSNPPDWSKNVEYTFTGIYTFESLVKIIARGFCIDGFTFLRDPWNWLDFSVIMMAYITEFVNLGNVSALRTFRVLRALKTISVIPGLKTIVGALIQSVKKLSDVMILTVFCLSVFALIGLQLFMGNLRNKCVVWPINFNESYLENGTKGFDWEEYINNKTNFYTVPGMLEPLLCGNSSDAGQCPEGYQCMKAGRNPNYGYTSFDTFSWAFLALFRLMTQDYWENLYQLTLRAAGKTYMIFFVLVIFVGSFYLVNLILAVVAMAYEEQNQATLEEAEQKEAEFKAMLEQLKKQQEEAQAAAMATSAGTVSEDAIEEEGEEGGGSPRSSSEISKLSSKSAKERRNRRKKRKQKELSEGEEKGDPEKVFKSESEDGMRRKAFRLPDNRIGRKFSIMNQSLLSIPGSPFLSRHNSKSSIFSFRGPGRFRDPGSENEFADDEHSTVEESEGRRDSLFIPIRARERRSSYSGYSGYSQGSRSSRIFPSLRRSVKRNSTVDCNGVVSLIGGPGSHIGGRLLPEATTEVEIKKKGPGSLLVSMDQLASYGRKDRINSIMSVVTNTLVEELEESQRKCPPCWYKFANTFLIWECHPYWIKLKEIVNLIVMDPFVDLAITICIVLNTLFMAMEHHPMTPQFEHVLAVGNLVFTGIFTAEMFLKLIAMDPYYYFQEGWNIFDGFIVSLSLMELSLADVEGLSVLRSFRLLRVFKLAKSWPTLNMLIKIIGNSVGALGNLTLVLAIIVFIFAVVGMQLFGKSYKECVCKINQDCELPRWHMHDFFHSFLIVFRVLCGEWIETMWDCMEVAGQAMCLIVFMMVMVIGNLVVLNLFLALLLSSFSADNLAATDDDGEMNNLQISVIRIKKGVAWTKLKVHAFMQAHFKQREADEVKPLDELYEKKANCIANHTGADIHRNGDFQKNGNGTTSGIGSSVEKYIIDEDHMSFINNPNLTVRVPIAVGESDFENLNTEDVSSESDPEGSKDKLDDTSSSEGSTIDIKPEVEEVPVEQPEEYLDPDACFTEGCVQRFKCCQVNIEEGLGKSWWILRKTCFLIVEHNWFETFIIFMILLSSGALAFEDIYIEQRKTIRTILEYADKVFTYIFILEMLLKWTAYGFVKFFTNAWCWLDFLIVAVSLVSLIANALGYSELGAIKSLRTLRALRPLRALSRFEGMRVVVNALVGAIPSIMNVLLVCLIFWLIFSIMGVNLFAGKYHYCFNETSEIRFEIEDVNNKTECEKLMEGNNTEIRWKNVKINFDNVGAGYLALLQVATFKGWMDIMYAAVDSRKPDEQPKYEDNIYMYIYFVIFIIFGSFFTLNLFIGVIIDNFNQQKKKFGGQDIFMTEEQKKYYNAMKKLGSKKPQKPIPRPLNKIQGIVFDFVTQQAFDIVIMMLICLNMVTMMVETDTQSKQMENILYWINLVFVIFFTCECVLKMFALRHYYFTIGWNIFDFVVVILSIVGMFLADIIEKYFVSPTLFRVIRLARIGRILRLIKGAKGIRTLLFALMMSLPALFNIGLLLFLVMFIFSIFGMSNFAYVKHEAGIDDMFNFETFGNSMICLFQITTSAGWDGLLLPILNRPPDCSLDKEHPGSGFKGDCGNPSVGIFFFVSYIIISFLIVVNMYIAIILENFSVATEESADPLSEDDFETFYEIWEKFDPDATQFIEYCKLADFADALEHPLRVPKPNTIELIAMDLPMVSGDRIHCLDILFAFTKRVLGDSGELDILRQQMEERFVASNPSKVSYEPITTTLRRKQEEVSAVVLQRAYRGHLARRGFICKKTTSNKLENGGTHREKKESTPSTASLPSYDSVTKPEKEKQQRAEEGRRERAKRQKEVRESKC

Structure (SMILES)	IC50 [1, 3] [nM]	IC50 [1, 4] [nM]	deterioration of the timed 25-foot walk [2]
CC1(C(=O)NCc2ccccn2)CCN(Cc2cccc(Oc3ccccc3)c2)C1 (racemic) [Example 12, (±) 3-methyl-1-(3-phenoxy-benzyl)-pyrrolidine-3-carboxylic acid (pyridin-2-ylmethyl)-amide]	> 33000	228	
CC1(C(=O)N2CCc3cccc(C(F)(F)F)c3C2)CCN(Cc2cccc(Oc3ccccc3)c2)C1 (racemic) [Example 13, (±) [3-methyl-1-(3-phenoxy-benzyl)-pyrrolidin-3-yl]-(8-trifluoromethyl-3,4-dihydro-1H-isoquinolin-2-yl)-methanone]	> 33000	1970	
CN(Cc1ccccn1)C(=O)C1(C)CCN(Cc2cccc(Oc3ccccc3)c2)C1 (racemic) [Example 14, (±) 3-methyl-1-(3-phenoxy-benzyl)-pyrrolidine-3-carboxylic acid methyl-pyridin-2-ylmethyl-amide]	30300	473	
COCCNC(=O)C1CCN(Cc2cccc(Oc3ccccc3)c2)C1 (racemic) [Example 19, (±) 1-(3-phenoxy-benzyl)-pyrrolidine-3-carboxylic acid (2-methoxy-ethyl)-amide]	30300	1180	
CC1(C(=O)NCc2ccccn2)CCN(Cc2csc(-c3ccccc3)n2)C1 (racemic) [Example 21, (±) 3-methyl-1-(2-phenyl-thiazol-4-ylmethyl)-pyrrolidine-3-carboxylic acid (pyridin-2-ylmethyl)-amide]	> 33000	1080	
COC(=O)C1(C)CCN(Cc2cccc(OCC(C)C)c2)C1 (racemic) [Example 22, (±) 1-(3-isobutoxy-benzyl)-3-methyl-pyrrolidine-3-carboxylic acid methyl ester]	> 33000	994	
CC(C)COc1cccc(CN2CCC(C)(C(=O)NCc3ccccn3)C2)c1 (racemic) [Example 23, (±) 1-(3-isobutoxy-benzyl)-3-methyl-pyrrolidine-3-carboxylic acid (pyridin-2-ylmethyl)-amide]	> 33000	445	
CC(C)COc1cccc(CN2CCC(C)(C(=O)N(C)Cc3ccccn3)C2)c1 (racemic) [Example 25, (±) 1-(3-isobutoxy-benzyl)-3-methyl-pyrrolidine-3-carboxylic acid methyl-pyridin-2-ylmethyl-amide]	19900	752	
CC1CN(C(=O)C2CCN(Cc3cccc(Oc4ccccc4)c3)C2)CCO1 (racemic) [Example 27, (±) (2-methyl-morpholin-4-yl)-[1-(3-phenoxy-benzyl)-pyrrolidin-3-yl]-methanone]	> 33000	1440	
COC1CCCN(C(=O)C2CCN(Cc3cccc(Oc4ccccc4)c3)C2)C1 (racemic) [Example 29, (±) (3-methoxy-piperidin-1-yl)-[1-(3-phenoxy-benzyl)-pyrrolidin-3-yl]-methanone]	> 33000	1890	
COC1CCN(C(=O)C2CCN(Cc3cccc(Oc4ccccc4)c3)C2)CC1 (racemic) [Example 30, (±) (4-methoxy-piperidin-1-yl)-[1-(3-phenoxy-benzyl)-pyrrolidin-3-yl]-methanone]	> 33000	1090	
CC1(C(=O)N2Cc3cccnc3C2)CCN(Cc2cccc(Oc3ccccc3)c2)C1 (racemic) [Example 31, (±) (5,7-dihydro-pyrrolo[3,4-b]pyridin-6-yl)-[3-methyl-1-(3-phenoxy-benzyl)-pyrrolidin-3-yl]-methanone]	> 33000	1740	
CC1(C(=O)N2CCc3cccnc3C2)CCN(Cc2cccc(Oc3ccccc3)c2)C1 (racemic) [Example 32, (±) (5,8-dihydro-6H-[1,7]naphthyridin-7-yl)-[3-methyl-1-(3-phenoxy-benzyl)-pyrrolidin-3-yl]-methanone]	> 33000	1670	
COC1CCN(C(=O)C2CCN(Cc3cccc(Oc4ccccc4)c3)C2)C1 (racemic) [Example 33, (±) (3-methoxy-pyrrolidin-1-yl)-[1-(3-phenoxy-benzyl)-Pyrrolidin-3-yl]-methanone]	> 33000	1520	
CCCNC(=O)C1(C)CCN(Cc2ccc(-c3ccccc3)o2)C1 (stereo not shown) [Example 5]	30700	785	
CCCNC(=O)C1(C)CCN(Cc2ccc(OC)c3ccccc23)C1 (stereo not shown) [Example 6]	23400	1860	
CCCNC(=O)C1(C)CCN(Cc2cccc(OC(=O)c3ccccc3)c2)C1 (stereo not shown) [Example 7]	> 33000	1610	
O=C(NCc1cccnc1)[C@@H]1CCN(Cc2cccc(Oc3ccccc3)c2)C1 [Example 24, (R)-1(3-phenoxy-benzyl)-pyrrolidine-3-carboxylic acid (pyridin-3-ylmethyl)-amide]	29900	1300	
Nc1nnc(-c2cccc(Cl)c2Cl)c(N)n1 [Lamotrigine]			reduced the deterioration of the timed 25-foot walk

Second part, led by results:

IC50 [1, 3] [nM]	IC50 [1, 4] [nM]	Structure (SMILES)	deterioration of the timed 25-foot walk [2]
14100	615	Cc1ccccc1CNC(=O)C1(C)CCN(Cc2cccc(Oc3ccccc3)c2)C1 (racemic) [Example 9, (±) 3-methyl-1-(3-phenoxy-benzyl)-pyrrolidine-3-carboxylic acid 2-methyl-benzylamide]	
15500	733	CC1(C(=O)N2CCOCC2)CCN(Cc2cccc(Oc3ccccc3)c2)C1 (racemic) [Example 15, (±) [3-methyl-1-(3-phenoxy-benzyl)-pyrrolidin-3-yl]-morpholin-4-yl-methanone]	
13100	409	CC1(C(=O)NCc2cccnc2)CCN(Cc2cccc(Oc3ccccc3)c2)C1 (racemic) [Example 16, (±) 3-methyl-1-(3-phenoxy-benzyl)-pyrrolidine-3-carboxylic acid (pyridin-3-ylmethyl)-amide]	
16400	940	CC1(C(=O)NCc2ccncc2)CCN(Cc2cccc(Oc3ccccc3)c2)C1 (racemic) [Example 17, (±) 3-methyl-1-(3-phenoxy-benzyl)-pyrrolidine-3-carboxylic acid (pyridin-4-ylmethyl)-amide]	
23100	621	CCNC(=O)C1CCN(Cc2cccc(Oc3ccccc3)c2)C1 (racemic) [Example 18, (±) 1-(3-phenoxy-benzyl)-pyrrolidine-3-carboxylic acid ethylamide]	
8940	1910	CN1CCN(C(=O)C2(C)CCN(Cc3cccc(Oc4ccccc4)c3)C2)CC1 (racemic) [Example 20, (±) [3-methyl-1-(3-phenoxy-benzyl)-pyrrolidin-3-yl]-(4-methyl-piperazin-1-yl)-methanone]	
10600	771	CC1(C(=O)NCCc2ccccn2)CCN(Cc2cccc(Oc3ccccc3)c2)C1 (racemic) [Example 26, (±) 3-methyl-1-(3-phenoxy-benzyl)-pyrrolidine-3-carboxylic acid (2-pyridin-2-v1-ethyl)-amide]	
19600	1170	O=C(NCCc1ccccn1)C1CCN(Cc2cccc(Oc3ccccc3)c2)C1 (racemic) [Example 28, (±) 1-(3-phenoxy-benzyl)-pyrrolidine-3-carboxylic acid (2-pyridin-2-yl-ethyl)-amide]	
16200	353	O=C(NCc1ccccn1)C1CCN(Cc2cccc(Oc3ccccc3)c2)C1 (racemic) [Example 34, (±) 1-(3-phenoxy-benzyl)-pyrrolidine-3-carboxylic acid (Pyridin-2-ylmethyl)-amide]	
20000	808	CCNC(=O)[C@@]1(C)CCN(Cc2cccc(Oc3ccccc3)c2)C1 (single isomer, unassigned) [Example 10]	
15700	825	CCNC(=O)[C@]1(C)CCN(Cc2cccc(Oc3ccccc3)c2)C1 (single isomer, unassigned) [Example 11]	
21400	1770	CCNC(=O)C1(C)CCN(Cc2ccc(-c3ccccc3)cc2)C1 (stereo not shown) [Example 1]	
15500	993	COCCNC(=O)C1(C)CCN(Cc2cccc(Oc3ccccc3)c2)C1 (stereo not shown) [Example 2]	
9420	1030	CCCNC(=O)C1(C)CCN(Cc2cccc(Oc3ccccc3)c2)C1 (stereo not shown) [Example 4]	
14800	1030	CCCNC(=O)C1(C)CCN(Cc2csc(-c3ccc(Cl)cc3)n2)C1 (stereo not shown) [Example 8]	
